Results from publication PMC8449129, “Single tracer-based protocol for broad-spectrum kinase profiling in live cells with NanoBRET” (STAR Protocols, 2021).

Tests used:
Experiment in all cases: cell-based
Set-up in all cases: NanoBRET live-cell target engagement; % occupancy from displacement of tracer K10 on NanoLuc-kinase fusions, mean n=3
Settings in all cases: HEK293, read-out: % inhibition
[1] = target: CDK16 (Homo sapiens, UniProt Q00536)
Outline: (§1)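 Live-cell NanoBRET target engagement: cells expressing kinase–NanoLuc fusion with tracer treated with compound 2 h at 37 °C, 5% CO2. BRET read from donor (450 nm) and acceptor (610/630 nm) emission with 20 μM extracellular NanoLuc inhibitor; % occupancy calculated relative to tracer+DMSO and zero-BRET controls.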

[2] = target: CDK17 (Homo sapiens, UniProt Q00537)
Outline: as §1

[3] = target: CDK6 (Homo sapiens, UniProt Q00534)
Outline: as §1

[4] = target: INSR (Homo sapiens, UniProt P06213)
Outline: as §1

[5] = target: T1, JNK3 (Homo sapiens, UniProt P53779)
T1 construct: gene MAPK10
Outline: as §1

[6] = target: LRRK2 (Homo sapiens, UniProt Q5S007)
Outline: as §1

[7] = target: MAP3K2 (Homo sapiens, UniProt Q9Y2U5)
Outline: as §1

[8] = target: MAPK8 (Homo sapiens, UniProt P45983)
Outline: as §1

[9] = target: NEK2 (Homo sapiens, UniProt P51955)
Outline: as §1

[10] = target: NUAK1 (Homo sapiens, UniProt O60285)
Outline: as §1

[11] = target: PAK6 (Homo sapiens, UniProt Q9NQU5)
Outline: as §1

[12] = target: PHKG2 (Homo sapiens, UniProt P15735)
Outline: as §1

[13] = target: RPS6KA6 (Homo sapiens, UniProt Q9UK32)
Outline: as §1

[14] = target: SIK3 (Homo sapiens, UniProt Q9Y2K2)
Outline: as §1

[15] = target: STK38 (Homo sapiens, UniProt Q15208)
Outline: as §1

[16] = target: ULK2 (Homo sapiens, UniProt Q8IYT8)
Outline: as §1

[17] = target: WEE1 (Homo sapiens, UniProt P30291)
Outline: as §1

[18] = target: WEE2 (Homo sapiens, UniProt P0C1S8)
Outline: as §1

Sequence of ULK2 (Q8IYT8 whole entry): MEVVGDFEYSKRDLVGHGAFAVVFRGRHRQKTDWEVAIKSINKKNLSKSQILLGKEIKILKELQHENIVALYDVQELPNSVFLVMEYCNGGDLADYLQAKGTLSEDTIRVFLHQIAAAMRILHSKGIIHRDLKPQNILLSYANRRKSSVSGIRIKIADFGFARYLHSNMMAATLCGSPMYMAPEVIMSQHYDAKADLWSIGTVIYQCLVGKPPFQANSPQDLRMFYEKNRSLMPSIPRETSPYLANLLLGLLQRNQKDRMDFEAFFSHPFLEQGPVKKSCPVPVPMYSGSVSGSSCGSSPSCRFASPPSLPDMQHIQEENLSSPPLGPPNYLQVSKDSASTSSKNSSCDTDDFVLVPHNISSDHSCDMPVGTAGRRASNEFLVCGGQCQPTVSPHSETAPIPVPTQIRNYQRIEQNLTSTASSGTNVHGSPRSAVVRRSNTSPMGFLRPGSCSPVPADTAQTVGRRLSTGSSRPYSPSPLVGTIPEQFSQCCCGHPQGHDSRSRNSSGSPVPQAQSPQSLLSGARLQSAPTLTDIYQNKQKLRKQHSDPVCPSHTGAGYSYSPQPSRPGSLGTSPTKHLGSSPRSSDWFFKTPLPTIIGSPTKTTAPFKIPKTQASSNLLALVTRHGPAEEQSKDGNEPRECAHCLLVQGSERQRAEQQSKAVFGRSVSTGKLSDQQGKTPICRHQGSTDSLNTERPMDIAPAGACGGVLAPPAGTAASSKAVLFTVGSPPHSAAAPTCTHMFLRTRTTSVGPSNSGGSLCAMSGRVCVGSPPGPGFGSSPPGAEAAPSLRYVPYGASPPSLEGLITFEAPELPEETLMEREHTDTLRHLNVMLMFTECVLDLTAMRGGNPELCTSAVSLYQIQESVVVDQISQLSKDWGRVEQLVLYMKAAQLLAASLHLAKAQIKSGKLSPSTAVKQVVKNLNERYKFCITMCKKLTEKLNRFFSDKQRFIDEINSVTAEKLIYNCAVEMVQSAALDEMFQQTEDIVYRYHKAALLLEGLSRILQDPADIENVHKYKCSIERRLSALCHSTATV
Sequence of CDK16 (Q00536 whole entry, the tested form may be a part): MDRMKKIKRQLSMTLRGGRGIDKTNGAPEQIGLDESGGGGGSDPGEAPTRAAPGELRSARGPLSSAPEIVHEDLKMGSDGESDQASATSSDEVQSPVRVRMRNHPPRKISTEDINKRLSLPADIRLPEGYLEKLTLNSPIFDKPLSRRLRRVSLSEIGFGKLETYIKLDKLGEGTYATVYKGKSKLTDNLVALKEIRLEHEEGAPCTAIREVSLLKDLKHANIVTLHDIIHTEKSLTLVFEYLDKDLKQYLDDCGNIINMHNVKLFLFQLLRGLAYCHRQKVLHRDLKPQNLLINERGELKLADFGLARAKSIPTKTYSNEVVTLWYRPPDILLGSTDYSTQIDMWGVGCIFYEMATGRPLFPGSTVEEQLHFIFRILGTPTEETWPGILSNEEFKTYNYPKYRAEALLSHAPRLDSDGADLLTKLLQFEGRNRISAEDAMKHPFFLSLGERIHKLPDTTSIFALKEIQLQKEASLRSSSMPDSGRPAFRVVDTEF
Sequence of NUAK1 (O60285 whole entry): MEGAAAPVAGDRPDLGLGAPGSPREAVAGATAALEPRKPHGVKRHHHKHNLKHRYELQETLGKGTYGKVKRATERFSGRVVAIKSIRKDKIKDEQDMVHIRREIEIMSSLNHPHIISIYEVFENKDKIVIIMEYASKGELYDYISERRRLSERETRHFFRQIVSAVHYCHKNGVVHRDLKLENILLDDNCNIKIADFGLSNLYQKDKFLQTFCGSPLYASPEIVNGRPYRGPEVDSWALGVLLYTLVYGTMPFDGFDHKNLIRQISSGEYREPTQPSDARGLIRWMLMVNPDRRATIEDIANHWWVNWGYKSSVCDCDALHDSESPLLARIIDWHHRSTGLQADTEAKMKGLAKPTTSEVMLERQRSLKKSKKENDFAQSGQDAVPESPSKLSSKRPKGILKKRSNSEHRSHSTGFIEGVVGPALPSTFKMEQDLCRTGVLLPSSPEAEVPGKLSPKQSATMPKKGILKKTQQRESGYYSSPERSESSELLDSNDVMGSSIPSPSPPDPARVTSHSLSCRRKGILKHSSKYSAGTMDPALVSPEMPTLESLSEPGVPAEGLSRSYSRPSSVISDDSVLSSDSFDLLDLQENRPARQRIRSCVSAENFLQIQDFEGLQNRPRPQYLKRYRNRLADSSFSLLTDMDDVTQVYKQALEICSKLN
Sequence of WEE2 (P0C1S8 whole entry): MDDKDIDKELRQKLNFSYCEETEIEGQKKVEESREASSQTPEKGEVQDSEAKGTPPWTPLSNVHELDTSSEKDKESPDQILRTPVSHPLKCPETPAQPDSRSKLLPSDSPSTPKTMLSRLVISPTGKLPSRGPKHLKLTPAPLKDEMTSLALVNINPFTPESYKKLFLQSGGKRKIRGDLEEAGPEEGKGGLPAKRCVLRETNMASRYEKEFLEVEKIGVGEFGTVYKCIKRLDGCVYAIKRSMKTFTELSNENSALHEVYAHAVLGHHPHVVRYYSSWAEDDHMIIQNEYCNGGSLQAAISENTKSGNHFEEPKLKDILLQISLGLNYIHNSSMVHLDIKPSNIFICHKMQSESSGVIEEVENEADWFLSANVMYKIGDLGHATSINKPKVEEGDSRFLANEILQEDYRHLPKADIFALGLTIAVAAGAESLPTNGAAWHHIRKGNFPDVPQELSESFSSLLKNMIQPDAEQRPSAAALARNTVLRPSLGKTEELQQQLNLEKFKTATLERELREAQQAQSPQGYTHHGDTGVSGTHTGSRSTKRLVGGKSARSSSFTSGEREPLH
Sequence of SIK3 (Q9Y2K2 whole entry): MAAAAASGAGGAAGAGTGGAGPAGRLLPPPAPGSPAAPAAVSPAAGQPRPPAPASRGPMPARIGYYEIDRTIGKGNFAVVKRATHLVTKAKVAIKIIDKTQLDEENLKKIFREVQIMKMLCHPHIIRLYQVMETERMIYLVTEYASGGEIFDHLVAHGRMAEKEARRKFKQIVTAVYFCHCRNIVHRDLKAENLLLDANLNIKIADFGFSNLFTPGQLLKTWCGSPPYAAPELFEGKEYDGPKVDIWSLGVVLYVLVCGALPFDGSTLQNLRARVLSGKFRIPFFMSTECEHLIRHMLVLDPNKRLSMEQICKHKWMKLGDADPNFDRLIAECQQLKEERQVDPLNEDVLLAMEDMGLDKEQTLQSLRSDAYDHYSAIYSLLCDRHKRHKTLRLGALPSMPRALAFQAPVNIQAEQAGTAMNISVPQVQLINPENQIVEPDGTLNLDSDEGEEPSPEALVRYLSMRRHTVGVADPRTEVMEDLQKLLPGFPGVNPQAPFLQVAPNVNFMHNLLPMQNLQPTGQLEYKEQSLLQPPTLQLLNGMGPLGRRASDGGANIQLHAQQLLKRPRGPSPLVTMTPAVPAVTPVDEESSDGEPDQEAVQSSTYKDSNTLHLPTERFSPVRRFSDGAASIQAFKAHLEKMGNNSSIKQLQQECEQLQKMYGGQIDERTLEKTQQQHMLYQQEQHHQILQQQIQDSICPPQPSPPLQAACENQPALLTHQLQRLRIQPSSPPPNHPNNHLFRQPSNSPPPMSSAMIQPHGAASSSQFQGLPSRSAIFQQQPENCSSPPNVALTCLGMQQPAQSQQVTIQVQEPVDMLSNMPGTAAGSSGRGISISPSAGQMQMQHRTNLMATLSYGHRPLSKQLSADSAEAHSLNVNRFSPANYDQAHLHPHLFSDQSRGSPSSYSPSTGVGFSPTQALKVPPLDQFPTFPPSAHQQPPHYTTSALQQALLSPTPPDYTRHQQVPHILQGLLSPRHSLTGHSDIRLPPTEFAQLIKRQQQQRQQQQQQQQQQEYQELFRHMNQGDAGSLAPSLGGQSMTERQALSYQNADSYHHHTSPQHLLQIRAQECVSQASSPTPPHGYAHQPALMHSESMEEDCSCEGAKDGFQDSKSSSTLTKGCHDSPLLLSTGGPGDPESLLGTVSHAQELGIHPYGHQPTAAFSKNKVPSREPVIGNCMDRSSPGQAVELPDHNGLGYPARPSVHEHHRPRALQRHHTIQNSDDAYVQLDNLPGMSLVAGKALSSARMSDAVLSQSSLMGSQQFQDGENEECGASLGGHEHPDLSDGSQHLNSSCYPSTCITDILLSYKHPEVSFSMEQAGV
Sequence of RPS6KA6 (Q9UK32 whole entry): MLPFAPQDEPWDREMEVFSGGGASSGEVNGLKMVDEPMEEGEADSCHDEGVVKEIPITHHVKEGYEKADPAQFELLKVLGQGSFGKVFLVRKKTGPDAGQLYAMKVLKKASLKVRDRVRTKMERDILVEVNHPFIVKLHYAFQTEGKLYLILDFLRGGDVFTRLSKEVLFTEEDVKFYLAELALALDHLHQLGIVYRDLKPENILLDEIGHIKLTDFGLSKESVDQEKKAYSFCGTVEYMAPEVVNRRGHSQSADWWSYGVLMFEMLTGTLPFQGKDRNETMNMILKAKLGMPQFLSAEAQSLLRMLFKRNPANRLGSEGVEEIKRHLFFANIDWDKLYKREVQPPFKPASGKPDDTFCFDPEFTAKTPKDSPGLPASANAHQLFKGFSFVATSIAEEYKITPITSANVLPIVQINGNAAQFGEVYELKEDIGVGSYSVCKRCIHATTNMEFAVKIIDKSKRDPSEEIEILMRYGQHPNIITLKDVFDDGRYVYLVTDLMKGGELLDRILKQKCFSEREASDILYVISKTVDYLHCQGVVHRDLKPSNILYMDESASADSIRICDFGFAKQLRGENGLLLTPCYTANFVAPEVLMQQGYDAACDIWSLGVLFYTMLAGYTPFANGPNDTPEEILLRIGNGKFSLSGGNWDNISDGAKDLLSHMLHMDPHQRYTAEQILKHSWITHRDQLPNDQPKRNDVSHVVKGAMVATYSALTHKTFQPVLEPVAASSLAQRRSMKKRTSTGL

C[C@@H](Oc1cc(-c2cnn(C3CCNCC3)c2)cnc1N)c1c(Cl)ccc(F)c1Cl [crizotinib]
inhibition at 1 µM [1]: 2% | inhibition at 1 µM [2]: 3% | inhibition at 1 µM [3]: 0% | inhibition at 1 µM [4]: 20% | inhibition at 1 µM [5]: -4% | inhibition at 1 µM [6]: -9% | inhibition at 1 µM [7]: 6% | inhibition at 1 µM [8]: -16% | inhibition at 1 µM [9]: 6% | inhibition at 1 µM [10]: 36% | inhibition at 1 µM [11]: -7% | inhibition at 1 µM [12]: 3% | inhibition at 1 µM [13]: -10% | inhibition at 1 µM [14]: 0% | inhibition at 1 µM [15]: 1% | inhibition at 1 µM [16]: -1% | inhibition at 1 µM [17]: -9% | inhibition at 1 µM [18]: -4%
